# Measurements from paper PMC9506480, “Synthesis and Evaluation of Antiproliferative Activity, Topoisomerase IIα Inhibition, DNA Binding and Non-Clinical Toxicity of New Acridine–Thiosemicarbazone Derivatives” (Pharmaceuticals, 2022).
# How the values were obtained:
# [1] = tested on: HepG2 (human hepatocellular carcinoma); test: Alamar blue cytotoxicity assay, HepG2; format: cell-based; details: 72 h incubation
# Method: (§1) The in vitro cytotoxic activity of the compounds (Table 1) was evaluated against cancer cell lines HCT116 (human colon carcinoma), HepG2 (human hepatocellular carcinoma), B16F10 (murine melanoma carcinoma) and non-cancerous cell line MRC-5 (human lung fibroblast) using the Alamar blue assay after 72 h of incubation; doxorubicin (DOX) was used as a positive control. The unsubstituted derivatives on the acridine cores were encoded as CL, and the disubstituted derivatives as DL.
# (§2) The human cancer cell lines HCT116 (colon carcinoma) and HepG2 (hepatocellular carcinoma), the mouse cancer cell line B16-F10 (melanoma), and the non-cancerous human cell line MRC-5 (lung fibroblast) were obtained from the American Type Culture Collection (ATCC, Manassas, VA, USA) and cultured according to the ATCC animal cell culture guide. All cell lines tested negative for mycoplasma using a mycoplasma stain kit.
# (§3) Cell viability was measured using the Alamar blue assay, as previously described. Cells were seeded in 96-well plates for all experiments. The compounds were dissolved in dimethyl sulfoxide (DMSO, Sigma-Aldrich) and added to each well in eight serial concentrations ranging from 0.19 to 25 μg/mL. As a positive control, doxorubicin was used. After 72 h of treatment, 20 μL of resazurin (0.312 mg/mL) was added to each well. A SpectraMax 190 Micro-plate Reader was used to measure absorbances at 570 and 595 nm (Molecular Devices, Sunnyvale, CA, USA). Nonlinear regression with 95% confidence intervals (CI 95%) was used to calculate the inhibitory concentration of 50% (IC50) using GraphPad Prism software (Intuitive Software for Science; San Diego, CA, USA).
# [2] = tested on: B16-F10 (murine melanoma); test: Alamar blue cytotoxicity assay, B16-F10; format: cell-based; details: Mus musculus, 72 h incubation
# Method: as §1, §2, §3
# CT DNA = CT DNA binding by UV–Vis absorption spectroscopy; design: species or system calf; details: compound 40 µM, CT DNA 0 to 60 µM, Tris-HCl pH 7.4
# Method: Absorption spectroscopy is a convenient and simple method for probing the binding of small molecules to DNA. The interaction of selected acridine–thiosemicarbazone derivatives with CT DNA was studied in the 220–500 nm region. Binding constants (Kb) were calculated from [DNA]/(Ɛa − Ɛf) versus [DNA], in which Kb is given by the ratio of slope to the intercept. […] For this, the regions chosen were the ones with the highest absorption intensity above 300 nm, due to the lower interference in DNA absorption in this region (ESI, Figures S50 and S53).
# The concentration of the calf thymus, Type I, fibers (CT DNA), was determined based on the extinction coefficient of the absorbance at 260 nm (6600 L mol^−1 cm^−1). All compounds were dissolved in methanol (HPLC grade) at a concentration of 1 mmol L^−1 (stock solution). Working solutions were prepared by diluting the stock solution using Tris-HCl buffer (pH 7.4), with concentrations of 40 µmol L^−1. Under the optimized concentration, the compounds were titered with increasing concentrations of CT DNA (5 to 60 µmol L^−1). After shaking the system and incubating at room temperature for 10 min, the measurements were recorded using a JASCO J818 spectropolarimeter in the range of 220 to 500 nm at 298 K. The intrinsic bond constant (Kb) was obtained by adjusting the data according to the equation below:[DNA]/(Ɛa − Ɛf) = [DNA]/(Ɛb − Ɛf) + 1/[Kb (Ɛb − Ɛf)] where Ɛa, Ɛb and Ɛf are the apparent extinction coefficient of the compounds, the extinction coefficient of the compounds found in their […] and the extinction coefficient of the compounds when fully DNA-bound, respectively. The graph of [DNA]/(Ɛa − Ɛf) versus [DNA] was used to obtain the Kb from the ratio between the slope and the intercept, as previously described in the literature. Binding data were obtained using SigmaPlot 10.0 software. The study of possible DNA denaturation using methanol–water solutions was evaluated up to the maximum final concentration of methanol in the assays (6%) (ESI, Figures S50 and S53).
# CT DNA–EtBr = test: Fluorescence competition with EtBr; format: binding, calf; details: for Ksv (10^3) (M^−1): [EtBr] = 20 μmol L^−1, [DNA] = 100 μmol L^−1; for Quenching (%): [EtBr] = 20 μmol L^−1, [DNA] = 100 μmol L^−1, [compound] = 0–100 μmol L^−1
# From the text: EtBr is a weak fluorophore in an aqueous solvent, which has its fluorescence enhanced when it binds to DNA by the intercalative mode. The study of fluorescence quenching with EtBr is commonly used to assess the ability of compounds to interact with DNA by interfering with the fluorescence of the EtBr–DNA interaction (ESI, Figures S58 and S59). The EtBr–DNA complex in the presence and absence of CL-07 is shown in Figure 6, and the comparison of the quenching extent between studied compounds in terms of F/F0 vs. [compound] is illustrated in Figure 7.
# The fluorescence titration results were analyzed using the Stern–Volmer equation [101], and the Ksv values of CT DNA–EtBr in the presence of the compounds calculated the slope of the graphs. The fluorescence spectra of the EtBr or CT DNA–EtBr compounds were obtained by excitation at 526 nm and scanning the emission from 530 to 650 nm. Solutions containing CT DNA–EtBr (20 μM:100 μM) were analyzed in the presence of several derivative concentrations (10, 20, 40, 60, 80 and 100 μM) in Tris-HCl buffer (0.1 M, pH 7.4) (ESI, Figures S58 and S59):F0/F = 1 + Ksv[Q] F0 and F represent the steady-state fluorescence intensities of CT DNA–EtBr in the absence and presence of the compounds, respectively. [Q] refers to the concentration of derivatives as a quencher. Ksv indicates the Stern–Volmer quenching constant.
# K562-Lucena 1 = test: MTT cytotoxicity assay on resistant leukemic cells, K562-Lucena 1; format: cell-based, human; details: for IC50: Homo sapiens, K562-Lucena 1, MTT, 72 h, multidrug-resistant
# Method: K562 (human erythroleukemic) and its multidrug-resistant counterpart, K562-Lucena 1, were obtained from the Tumor Immunology Laboratory (Federal University of Rio de Janeiro) (Rumjanek et al., 2001) and were cultured as recommended by Daflon-Yunes et al., 2013 [93, 106, 107].
# CL-07, DL-01 and DL-08 compounds were evaluated for cell viability on K562 and K562-Lucena 1 cells using the colorimetric tetrazolium method (Mosmann, 1983). Cells were plated in 96-well plates. Compounds were dissolved in 1% (v/v) DMSO and RPMI-1640 medium (Sigma-Aldrich) in five serial concentrations from 1 to 50 µg/mL and were later added to each well and incubated for 72 h at 37 °C in a 5% CO2 humidified environment. As a positive control, 1 µM staurosporine was used. Then, the cells were treated with 20 µL of 5 mg/mL 3-(4,5-dimethylthiazol-2yl)-2,5-diphenyltetrazolium bromide solution (MTT solution in phosphate buffer solution) for 3 h. At the end of treatment, absorbances at 562 nm were measured using an iMark™ Microplate Absorbance Reader (iMark™, Hercules, CA, USA). Half-inhibitory concentration (IC50) was obtained by nonlinear regression with 95% confidence intervals (CI 95%) using GraphPad Prism software (Intuitive Software for Science; San Diego, CA, USA).
Structure (SMILES),IC50 [1] [µM],IC50 [2] [µM],Hypochromic (%) (CT DNA),Ksv (10^3) (M^−1) (CT DNA–EtBr; Stern–Volmer constant),"Ksv (CT DNA–EtBr; Stern–Volmer constant, abstract value) [M⁻¹]",Quenching (%) (CT DNA–EtBr),IC50 (K562-Lucena 1) [µM],selectivity K562-Lucena 1 versus MRC-5 (K562-Lucena 1; more selective than MRC-5) [times]
"Oc1ccc(/C=N/NC(=S)Nc2c3ccccc3nc3ccccc23)cc1 [CL-07, (E)-N-(acridin-9-yl)-2-(4-hydroxybenzylidene)hydrazine-1-carbothioamide]",50.7,19.8,25.52,2.6 10^3 M^−1,2600,21.71,43.4,
"COc1ccc2nc3cc(Cl)ccc3c(NC(=S)N/N=C/c3ccccc3)c2c1 [DL-01, (E)-2-benzylidene-N-(6-chloro-2-methoxyacridin-9-yl)hydrazine-1-carbothioamide]",21.9,39.6,12.89,1.8 10^3 M^−1,,15.61,16.5,2
"COc1ccc2nc3cc(Cl)ccc3c(NC(=S)N/N=C/c3cccc(O)c3)c2c1 [DL-08, (E)-N-(6-chloro-2-methoxyacridin-9-yl)-2-(3-hydroxybenzylidene)hydrazine-1-carbothioamide]",21.3,14.8,14.79,2.5 10^3 M^−1,,20.83,17.1,
